From article PMC7618104, “The GLP-1 analogue, exendin-4, improves bone material properties and strength through a central relay in ovariectomized mice” (American journal of physiology. Endocrinology and metabolism, 2025)

Assays:
[1] = tested on: animal models of bone fragility; conditions: subcutaneous, OVX model; cited from earlier work
Text: These observations formed the basis for investigating the potential utility of a GLP-1r agonist for the management of bone fragility. Ex-4 has already been administered subcutaneously in preclinical models of bone fragility, including the OVX model used in the present study. Previous studies have reported positive effects of Ex-4 that increased bone mineral density, trabecular microstructure and circulating calcitonin leve ...

[2] = tested on: ovariectomized BALB/c mice; assay: Bone histomorphometry at the proximal tibia metaphysis; type: in vivo, mouse (BALB/cJRj, female); conditions: 28 days, n=8; for BFR/BS / MAR / MS/BS / O.Th / OS/BS / N.Oc/B.Pm / Oc.S/BS: mean ± SD; for N.Oc/B.Pm / Oc.S/BS: p<0.001 vs. OVX+Vehicle
Protocol: (§1) Eight animals were randomly assigned to each group.
(§2) All animals received intraperitoneal administration of calcein green (10 mg/kg) 10 days and 2 days before sacrifice. Animals were housed in social groups and maintained in a 12 h:12 h light/dark cycle. They had free access to water and food. At necropsy, blood was collected by intracardiac aspiration into EDTA-treated tubes. Blood samples were centrifuged at 13,000 g for 15 min, aliquoted and stored at -80°C until plasma levels of exendin-4 (#EK-070-94, Phoenix pharmaceuticals, Burlingame, CA) and calcitonin (NBP3-06734, Bio-Techne Ltd, Abingdon, UK) were measured according to the manufacturer’s protocol. Plasma levels of the bone remodeling markers C-terminal telopeptide of collagen type I (CTx-I – RatLaps, Immunodiagnostic Systems Ltd, Boldon, UK) and N-terminal propeptide of type I collagen (P1NP - Rat/mouse P1NP, Immunodiagnostic Systems Ltd) were measured according to the manufacturers’ recommendation. Right femurs were wrapped in saline-soaked gauze and frozen at -20°C until use. Right tibiae were fixed in ethanol-based fixative and stored at 4°C until use. No specific inclusion or exclusion criteria were applied for animal selection. […] Additionally, correct implantation of the cerebral perfusion cannulas for icv-administered animals was verified at necropsy. All animals meeting these criteria were included in the study.
After microCT, right tibias were embedded undecalcified in polymethylmethacrylate (pMMA) at 4°C as previously reported ([32]). Seven micron-thick sections were made with a sledge microtome (Polycut S, Leica, Nanterre, France) prior to histoenzymatic detection of TRAP or Goldner trichrome staining. Dynamic histomorphometry was perfomed after counterstaining the bone matrix with calcein blue. All histomorphometrical parameters were measured with an in-house written application developed in Matlab R2023b (The Mathworks, Natick, CA, RRID:SCR_001622) according to guidelines and nomenclature proposed by the American Society for Bone and Mineral Research ([33]).

[3] = tested on: ovariectomized BALB/c mice; assay: 3-point bending of femur (whole-bone strength), ovariectomy-induced bone fragility model; type: in vivo, mouse (BALB/cJRj, female); conditions: 28 days, n=8
Protocol: as §1, §2
(§3) The whole-bone strength of right femurs was assessed by 3-point bending in accordance with published guidelines ([34]). Three-point bending strength was measured with a constant span length of 10 mm. Bones were tested in the antero-posterior axis with the posterior surface facing upward, centered on the support and the pressing force was applied vertically to the midshaft of the bone. Each bone was tested fully hydrated and at room temperature with a loading speed of 2 mm.min^-1 until failure with a 500 N load cell on an Instron 5942 device (Instron, Elancourt, France) and the load-displacement curve was recorded at a 100 Hz rate by the Bluehill 3 software (Instron). Ultimate load, ultimate displacement, stiffness and work to fracture were calculated as indicated in ([34]). The yield point was determined as the point at which a regression line that represents a 10% loss in stiffness crosses the load-displacement curve. Post-yield displacement was computed as the displacement between yielding and fracture. Peak bending moment was calculated as one-half the ultimate load multiplied by one-half the span length ([34]). The peak bending moment is related to bone tissue material properties and bone midshaft geometry by the following equation: M=σb×IML/cAP

[4] = tested on: ovariectomized BALB/c mice; assay: Plasma levels of calcitonin and bone remodeling markers (CTx-I, P1NP); type: in vivo, mouse (BALB/cJRj, female); conditions: 28 days, n=8; for Calcitonin (plasma) / P1NP (plasma) / CTx-I (plasma): mean ± SD
Protocol: as §1, §2

[5] = tested on: ovariectomized BALB/c mice; assay: Tissue material strength of femur (from peak bending moment and geometry); type: in vivo, mouse (BALB/cJRj, female); conditions: 28 days, vs OVX+vehicle, n=8
Protocol: as §1
as §3, with “M=σb×IML/cAP […]” for “M=σb×IML/cAP”

[6] = tested on: ovariectomized BALB/c mice; assay: microCT cortical bone microstructure, midshaft femur; type: in vivo, mouse (BALB/cJRj, female); conditions: 28 days, OVX, n=8
Protocol: as §1
All animals received intraperitoneal administration of calcein green (10 mg/kg) 10 days and 2 days before sacrifice. Animals were housed in social groups and maintained in a 12 h:12 h light/dark cycle. They had free access to water and food. At necropsy, blood was collected by intracardiac aspiration into EDTA-treated tubes. Blood samples were centrifuged at 13,000 g for 15 min, aliquoted and stored at -80°C until plasma levels of exendin-4 (#EK-070-94, Phoenix pharmaceuticals, Burlingame, CA) and calcitonin (NBP3-06734, Bio-Techne Ltd, Abingdon, UK) were measured according to the manufacturer’s protocol. Plasma levels of the bone remodeling markers C-terminal telopeptide of collagen type I (CTx-I – RatLaps, Immunodiagnostic Systems Ltd, Boldon, UK) and N-terminal propeptide of type I collagen (P1NP - Rat/mouse P1NP, Immunodiagnostic Systems Ltd) were measured according to the manufacturers’ recommendation. Right femurs were wrapped in saline-soaked gauze and frozen at -20°C until use. […]
MicroCT analyses were performed at the proximal metaphysis of the right tibia and at the mid-diaphysis of the right femur with a Bruker 1272 microtomograph operated at 70 kV, 140 μA, 1000 ms integration time and imaging in ethanol 70. […] The region analyzed (0.5 mm) was centered at the midpoint between the third trochanter and the distal growth plate. […]

[7] = icv Ex-4 70 pmol/day, vs OVX+vehicle, p<0.001
[8] = s.c. Ex-4 ~700 pmol/day, vs OVX+vehicle, p<0.001

For exendin-4 [Ex-4], the “bone mineral density, trabecular microstructure, calcitonin, osteoclast parameters, bone strength” value [1] is listed as “increased bone mineral density, trabecular microstructure and circulating calcitonin levels and reduced osteoclast parameters, resulting in greater bone strength”, the BFR/BS ([2]; OVX + Ex-4, icv 70 pmol/day) is listed as 0.282 ± 0.065 μm^3/μm^2/day and the MAR ([2]; OVX + Ex-4, icv 70 pmol/day) is listed as 2.17 ± 0.41 μm/day. It also gave an MS/BS ([2]; OVX + Ex-4, icv 70 pmol/day) of 12.9 ± 1.2%, an O.Th ([2]; OVX + Ex-4, icv 70 pmol/day) of 4.7 ± 0.7 μm and an OS/BS ([2]; OVX + Ex-4, icv 70 pmol/day) of 3.0 ± 2.2%. For the same substance, the N.Oc/B.Pm ([2]; OVX + Ex-4, icv 70 pmol/day) was 1.01 ± 0.27 ^*** mm^-1, the Oc.S/BS ([2]; OVX + Ex-4, icv 70 pmol/day) was 0.96 ± 0.27 % and the BFR/BS ([2]; OVX + Ex-4, s.c. ~700 pmol/day) was 0.301 ± 0.059 μm^3/μm^2/day. For the same substance, the MAR ([2]; OVX + Ex-4, s.c. ~700 pmol/day) was 2.30 ± 0.35 μm/day, the MS/BS ([2]; OVX + Ex-4, s.c. ~700 pmol/day) was 13.0 ± 1.3% and the O.Th ([2]; OVX + Ex-4, s.c. ~700 pmol/day) was 4.8 ± 0.8 μm. It also gave an OS/BS ([2]; OVX + Ex-4, s.c. ~700 pmol/day) of 2.4 ± 1.0%, a N.Oc/B.Pm ([2]; OVX + Ex-4, s.c. ~700 pmol/day) of 1.11 ± 0.26 and an Oc.S/BS ([2]; OVX + Ex-4, s.c. ~700 pmol/day) of 0.99 ± 0.28 %. The “change in number of osteoclasts” value [2, 7] was -51%, the “change in osteoclast surfaces” value [2, 7] was -45% and the “change in number of osteoclasts and osteoclast surfaces” value [2, 8] was -41%. The increase in energy-to-fracture [3, 7] was 8%, the “increase in post-yield displacement” value [3, 7] was 8% and the “increase in ultimate load” value ([3]; icv Ex-4 70 pmol/day, vs OVX+vehicle, p=0.010) was 7%. For the same substance, the ultimate load ([3]; s.c. Ex-4 ~700 pmol/day, OVX, p=0.817) was “did not prevent the impact of ovariectomy on ultimate load”, the stiffness ([3]; s.c. Ex-4 ~700 pmol/day, OVX, p=0.984) was “did not prevent the impact of ovariectomy” and the increase in energy-to-fracture ([3]; s.c. Ex-4 ~700 pmol/day, vs OVX+vehicle, p=0.020) was 24%. The “increase in post-yield displacement” value ([3]; s.c. Ex-4 ~700 pmol/day, vs OVX+vehicle, p=0.025) was 18%, the “Calcitonin (plasma)” value ([4]; OVX + Ex-4, icv 70 pmol/day) was 47 ± 10 pg/mL and the “P1NP (plasma)” value ([4]; OVX + Ex-4, icv 70 pmol/day) was 28.0 ± 2.2 ng/mL. For the same substance, the “CTx-I (plasma)” value ([4]; OVX + Ex-4, icv 70 pmol/day, p<0.01 vs. OVX+Vehicle) was 8.5 ± 1.7 ng/mL, the “P1NP (plasma)” value ([4]; OVX + Ex-4, s.c. ~700 pmol/day) was 25.2 ± 4.0 ng/mL and the “Calcitonin (plasma)” value ([4]; OVX + Ex-4, s.c. ~700 pmol/day, p<0.001 vs. OVX+Vehicle) was 111 ± 15 pg/mL. The “CTx-I (plasma)” value ([4]; OVX + Ex-4, s.c. ~700 pmol/day, p<0.05 vs. OVX+Vehicle) was 11.7 ± 2.0 ng/mL, the circulating calcitonin levels ([4]; icv Ex-4 70 pmol/day, OVX) was “no effects on circulating calcitonin levels” and the “change in plasma CTX-I” value ([4]; icv Ex-4 70 pmol/day, vs OVX+vehicle, p=0.005) was -38%. The “increase in plasma circulating calcitonin” value [4, 8] was 152%, the “change in plasma CTX-I” value ([4]; s.c. Ex-4 ~700 pmol/day, vs OVX+vehicle, p=0.012) was -20% and the “increase in tissue material strength” value ([5]; icv Ex-4 70 pmol/day, p=0.005) was 9%. For the same substance, the “increase in tissue material strength” value ([5]; s.c. Ex-4 ~700 pmol/day, p=0.043) was 11%, the cortical bone microstructure ([6]; icv Ex-4 70 pmol/day) was “unable to demonstrate significant changes in cortical bone microstructure” and the cortical bone microstructure ([6]; s.c. Ex-4 ~700 pmol/day) was “did not alter cortical bone microstructure”.
